From ChEMBL document CHEMBL5335778, “Bench-to-bedside: Innovation of small molecule anti-SARS-CoV-2 drugs in China” (Eur J Med Chem, 2023)

Legend:
SARS-CoV-2 [1] = assay: Antiviral activity against SARS-CoV-2 Omicron assessed as reduction of viral growth; type: functional, organism-based; conditions: Severe acute respiratory syndrome coronavirus 2, Omicron
[2] = Oral bioavailability in rat; type: ADME, organism-based; conditions: in vivo
[3] = tested on: Human immunodeficiency virus 1; assay: Antiviral activity against HIV-1 3B infected in human MT4 cells assessed as reduction in virus-induced cytopathic effect incubated for 5 days by MTT assay; type: functional, organism-based; conditions: Human immunodeficiency virus 1, 3B, MT4, 120 h
[4] = Cytotoxicity against human MT4 cells assessed as reduction in cell viability treated for 5 days by MTT assay; type: toxicity, cell-based; conditions: time 5 day
[5] = Inhibition of HIV-1 […]; parameters: species or system Human immunodeficiency virus 1
SARS-CoV-2 [6] = assay: Antiviral activity against SARS-CoV-2 infected in African green monkey Vero E6 cells assessed as reduction in infection measured after 24 hrs by Plaque assay; type: functional, organism-based; conditions: Severe acute respiratory syndrome coronavirus 2, Vero C1008, 24 h
[7] = biological target: T1, Human immunodeficiency virus type 1 reverse transcriptase (Human immunodeficiency virus 1, UniProt Q72547); assay: Inhibition of wild type HIV-1 reverse transcriptase
[8] = tested on: Human immunodeficiency virus 2; assay: Antiviral activity against HIV-2 D194 infected in PBMC assessed as inhibition of viral growth; type: functional, organism-based; conditions: Human immunodeficiency virus 2, D194, PBMC
Human coronavirus OC43 = assay: Antiviral activity against HCoV-OC43; type: functional, organism-based; conditions: Betacoronavirus 1
SARS-CoV-2 [9] = assay: Antiviral activity against SARS-CoV-2 assessed as inhibition of viral replication; type: functional, organism-based; conditions: Severe acute respiratory syndrome coronavirus 2
[10] = Oral bioavailability in beagle dog at 2 mg/kg; type: ADME, organism-based, Canis lupus familiaris; conditions: in vivo
SARS-CoV-2 [11] = assay: Antiviral activity against SARS-Co-V-2 infected in Vero E6 cells assessed as reduction in viral replication; type: functional, organism-based; conditions: Severe acute respiratory syndrome coronavirus 2, Vero C1008
SARS-CoV-2 [12] = assay: Antiviral activity against SARS-CoV-2 infected in human A549-ACE2 cells; type: functional, organism-based; conditions: Severe acute respiratory syndrome coronavirus 2, A549-ACE2
Hepatitis C virus = assay: Antiviral activity against HCV infected in human Huh-7.5.1 cells assessed as reduction in viral infection incubated for 48 hrs by MTS assay; type: functional, organism-based, Hepacivirus hominis; conditions: Huh-7.5.1, 48 h
SARS-CoV-2 [13] = assay: Antiviral activity against SARS-CoV-2 in human A549-ACE2 cells assessed as reduction in viral growth; type: functional, organism-based; conditions: Severe acute respiratory syndrome coronavirus 2, A549-ACE2
SARS-CoV-2 [14] = assay: Antiviral activity against SARS-CoV-2 B.1 infected in Green monkey VeroE6/TMPRSS2 cells assessed as inhibition of viral replication incubated for 2 days by qRT-PCR analysis; type: functional, organism-based; conditions: Severe acute respiratory syndrome coronavirus 2, B.1, VeroE6/TMPRSS2, 48 h
[15] = Inhibition of DENV RNA-dependent RNA polymerase activity; parameters: species or system Dengue virus
[16] = Oral bioavailability in Beagle dog at 3 mg/kg; type: ADME, organism-based, Canis lupus familiaris; conditions: in vivo
[17] = Oral bioavailability in Sprague-Dawley rat at 3 mg/kg by HPLC analysis; type: ADME, organism-based; conditions: in vivo
[18] = Oral bioavailability in monkey at 3 mg/kg, HPLC analysis; type: ADME, organism-based, Macaca mulatta; conditions: rhesus monkey, in vivo
[19] = Oral bioavailability in human at 2 mg; type: ADME, organism-based; conditions: in vivo
[20] = Plasma protein binding in rat assessed as free fraction by equilibrium dialysis analysis; type: ADME, cell-free
[21] = Selectivity index, ratio of CC50 for African green monkey Vero cells to EC50 for SARS-COV-2; type: cell-based; conditions: read-out: Ratio CC50/EC50
[22] = Oral bioavailability in rat at 2 mg/kg by LC-MS/MS analysis; type: ADME, organism-based; conditions: in vivo
SARS-CoV-2 [23] = assay: Antiviral activity against luciferase-expressing pseudovirus encoding SARS-CoV-2 Omicron expressing S protein infected in human 293T/ACE2 cells assessed as reduction of viral growth measured after 48 hrs by luciferase assay; type: functional, organism-based; conditions: Severe acute respiratory syndrome coronavirus 2, 293T/ACE2, 48 h
SARS-CoV-2 [24] = assay: Antiviral activity against SARS-CoV-2 infected in human A549-ACE2 cells assessed as reduction in viral replication; type: functional, organism-based; conditions: Severe acute respiratory syndrome coronavirus 2, A549-ACE2
SARS-CoV-2 [25] = assay: Antiviral activity against SARS-CoV-2 infected in African green monkey Vero E6 cells assessed as reduction in cell growth; type: functional, organism-based; conditions: Severe acute respiratory syndrome coronavirus 2, Vero C1008
[26] = Cytotoxicity against African green monkey Vero E6 cells assessed as cell growth inhibition measured after 48 hrs by CCK-8 assay; type: toxicity, cell-based, Vero C1008; conditions: chlorocebus sabaeus
SARS-CoV-2 [27] = assay: Antiviral activity against SARS-COV-2 infected in African green monkey Vero E6 cells assessed as reduction in viral growth; type: functional, organism-based; conditions: Severe acute respiratory syndrome coronavirus 2, Vero C1008
[28] = biological target: T1, Human immunodeficiency virus type 1 reverse transcriptase; assay: Inhibition of HIV-1 reverse transcriptase associated RNA-dependent DNA polymerase

## O=C[C@H](C[C@@H]1CCNC1=O)NC(=O)[C@H](Cc1ccccc1)NC(=O)c1cc2ccccc2[nH]1
SARS-CoV-2 [1]
  EC50: 33 nM

## [2H]c1cc([C@]2(C#N)O[C@H](CO)[C@@H](O)[C@H]2O)n2ncnc(N)c12
[2]
  bioavailability: 21.7%
[3]
  EC50: 390 nM
[4]
  CC50 at 120 h: > 500000 nM

## [N-]=[N+]=N[C@]1(CO)O[C@@H](n2ccc(N)nc2=O)[C@@H](F)[C@@H]1O [RO-0622]
[5]
  EC50: 1200 nM

## Nc1ncnc2c1ccn2[C@@H]1O[C@H](CO)[C@@H](O)[C@H]1O [TUBERCIDIN]
SARS-CoV-2 [6]
  EC50: 590 nM

## [N-]=[N+]=N[C@]1(COP(=O)(O)OP(=O)(O)OP(=O)(O)O)O[C@@H](n2ccc(N)nc2=O)[C@@H](F)[C@@H]1O
[7]
  EC50: 0.03 nM
[8]
  EC50: 0.018 nM
Human coronavirus OC43
  EC50: 4300 nM
SARS-CoV-2 [9]
  EC50: 1200 nM
[10]
  bioavailability: 82.7%

## COc1ccc2cc1Oc1ccc(cc1)C[C@H]1c3c(cc4c(c3Oc3cc5c(cc3OC)CCN(C)[C@@H]5C2)OCO4)CCN1C [CEPHARANTHINE]
SARS-CoV-2 [11]
  EC50: 980 nM
SARS-CoV-2 [12]
  IC50: 240 nM
Hepatitis C virus
  IC50: 60 nM
SARS-CoV-2 [13]
  IC50: 240 nM
SARS-CoV-2 [14]
  IC50: 1900 nM

## Br.[2H]c1cc([C@]2(C#N)O[C@H](COC(=O)C(C)C)[C@@H](OC(=O)C(C)C)[C@H]2OC(=O)C(C)C)n2ncnc(N)c12 [DEUREMIDEVIR HYDROBROMIDE]
[15]
  EC50: 240 nM
[16]
  bioavailability: 80%
[2]
  bioavailability: 80%
[3]
  EC50: 240 nM

## N#C[C@@]1(c2ccc3c(N)ncnn23)O[C@H](CO)[C@@H](O)[C@H]1O [GS-441524]
[17]
  bioavailability: 16%
[18]
  bioavailability: < 8%
[19]
  bioavailability: 13%
[20]
  fraction unbound: 0.62
SARS-CoV-2 [6]
  EC50: 390 nM
[21]
  selectivity ratio: > 1280
[22]
  bioavailability: 50%
[3]
  EC50: 590 nM
[4]
  CC50 at 120 h: > 500000 nM

## CC[C@H](C)[C@H]1NC(=O)[C@@H](NC(=O)[C@@H](CC(C)C)N(C)C(=O)[C@@H]2CCCN2C(=O)C(C)=O)[C@@H](C)OC(=O)[C@H](Cc2ccc(OC)cc2)N(C)C(=O)[C@@H]2CCCN2C(=O)[C@H](CC(C)C)NC(=O)[C@@H](C)C(=O)[C@H](C(C)C)OC(=O)C[C@@H]1O [PLITIDEPSIN]
SARS-CoV-2 [23]
  EC50: 350 nM
SARS-CoV-2 [24]
  EC50: 100 nM
SARS-CoV-2 [25]
  EC50: 0.7 nM

## CC[C@H](C)[C@@H](C(=O)O[C@@H](CC(C)C)C(=O)N[C@@H](CC(C)C)C(=O)N[C@@H](C)/C=C/C(=O)N1C(=O)C=C(OC)[C@@H]1C)N(C)C [GALLINAMIDE A]
[26]
  CC50 at 48 h: 88 nM
SARS-CoV-2 [27]
  EC50: 28 nM

## C[C@@]1(O)[C@H](O)[C@@H](CO)O[C@H]1n1ccc(N)nc1=O
[28]
  IC50: 1050 nM

## N#Cc1cn([C@@H]2O[C@H](CO)[C@@H](O)[C@H]2O)c2ncnc(N)c12 [TOYOCAMYCIN]
SARS-CoV-2 [6]
  EC50: 590 nM
